Experimental data published in PubChem BioAssay (NCI).
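Here, GI50 denotes the concentration required for 50% inhibition of growth. TGI: concentration producing complete growth inhibition.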

Tests used:
Assay in all cases: NCI tumour cell line growth inhibition, 384-well format
NCI-H226 lung = test system: NCI-H226 lung
NCI-H322M lung = test system: NCI-H322M lung
HCT-116 colon = test system: HCT-116 colon
OVCAR-8 ovarian = test system: OVCAR-8 ovarian
SNB-75 CNS = test system: SNB-75 CNS
SF-295 CNS = test system: SF-295 CNS
MCF7 breast = test system: MCF7 breast
MOLT-4 leukemia = test system: MOLT-4 leukemia
MDA-MB-468 breast = test system: MDA-MB-468 breast
SN12C renal = test system: SN12C renal
EKVX NSCLC = test system: EKVX NSCLC
HOP-62 NSCLC = test system: HOP-62 NSCLC
MDA-MB-231 breast = test system: MDA-MB-231 breast
SK-MEL-28 melanoma = test system: SK-MEL-28 melanoma
HCC-2998 colon = test system: HCC-2998 colon
SK-OV-3 ovarian = test system: SK-OV-3 ovarian
HL-60(TB) leukemia = test system: HL-60(TB) leukemia
KM12 colon = test system: KM12 colon
OVCAR-5 ovarian = test system: OVCAR-5 ovarian
NCI/ADR-RES ovarian = test system: NCI/ADR-RES ovarian
HS 578T breast = test system: HS 578T breast
M14 melanoma = test system: M14 melanoma
BT-549 breast = test system: BT-549 breast
HCT-15 colon = test system: HCT-15 colon
OVCAR-4 ovarian = test system: OVCAR-4 ovarian
LOX IMVI melanoma = test system: LOX IMVI melanoma
COLO 205 colon = test system: COLO 205 colon
MALME-3M melanoma = test system: MALME-3M melanoma
SF-539 CNS = test system: SF-539 CNS
SF-268 CNS = test system: SF-268 CNS
RPMI-8226 leukemia = test system: RPMI-8226 leukemia
NCI-H23 lung = test system: NCI-H23 lung
MDA-MB-435 melanoma = test system: MDA-MB-435 melanoma
A498 renal = test system: A498 renal
ACHN renal = test system: ACHN renal
RXF 393 renal = test system: RXF 393 renal
NCI-H460 NSCLC = test system: NCI-H460 NSCLC
UACC-257 melanoma = test system: UACC-257 melanoma
HT29 colon = test system: HT29 colon
SNB-19 CNS = test system: SNB-19 CNS
SK-MEL-5 melanoma = test system: SK-MEL-5 melanoma
PC-3 prostate = test system: PC-3 prostate
U251 glioblastoma = test system: U251 glioblastoma
HOP-92 NSCLC = test system: HOP-92 NSCLC
IGROV1 ovarian = test system: IGROV1 ovarian
NCI-H522 lung = test system: NCI-H522 lung
CAKI-1 renal = test system: CAKI-1 renal
DU-145 prostate = test system: DU-145 prostate
OVCAR-3 ovarian = test system: OVCAR-3 ovarian
A549 NSCLC = test system: A549 NSCLC
UACC-62 melanoma = test system: UACC-62 melanoma
SR leukemia = test system: SR leukemia
TK-10 renal = test system: TK-10 renal
T-47D breast = test system: T-47D breast

For `COc1cccc2[nH]c3c4c(c5c(c3c12)C(=O)N(CN1CCN(C)CC1)C5=O)CCC4`, the GI50 (NCI-H226 lung) was 15.9 µM, the TGI (NCI-H226 lung) was 33.2 µM and the GI50 (NCI-H322M lung) was 14.4 µM. It also gave a TGI (NCI-H322M lung) of 27.8 µM, a GI50 (HCT-116 colon) of 11.6 µM and a TGI (HCT-116 colon) of 24.4 µM. It also gave a GI50 (OVCAR-8 ovarian) of 9.47 µM, a TGI (OVCAR-8 ovarian) of 23.1 µM and a GI50 (SNB-75 CNS) of 13 µM. The TGI (SNB-75 CNS) was 25.9 µM, the GI50 (SF-295 CNS) was 13.9 µM and the TGI (SF-295 CNS) was 27.2 µM. The GI50 (MCF7 breast) was 12.5 µM, the TGI (MCF7 breast) was 26.9 µM and the GI50 (MOLT-4 leukemia) was 6.13 µM. The TGI (MOLT-4 leukemia) was 19.1 µM, the GI50 (MDA-MB-468 breast) was 8.27 µM and the TGI (MDA-MB-468 breast) was 21.1 µM. For the same compound, the GI50 (SN12C renal) was 12.5 µM, the TGI (SN12C renal) was 40.6 µM and the GI50 (EKVX NSCLC) was 15.4 µM. For the same compound, the TGI (EKVX NSCLC) was 29.1 µM, the GI50 (HOP-62 NSCLC) was 11.5 µM and the TGI (HOP-62 NSCLC) was 24 µM. For the same compound, the GI50 (MDA-MB-231 breast) was 16.1 µM, the TGI (MDA-MB-231 breast) was 29.9 µM and the GI50 (SK-MEL-28 melanoma) was 14.5 µM. It also gave a TGI (SK-MEL-28 melanoma) of 28.3 µM, a GI50 (HCC-2998 colon) of 21 µM and a TGI (HCC-2998 colon) of 66.1 µM. It also gave a GI50 (SK-OV-3 ovarian) of 11.2 µM, a TGI (SK-OV-3 ovarian) of 23.6 µM and a GI50 (HL-60(TB) leukemia) of 10.7 µM. The TGI (HL-60(TB) leukemia) was 22.7 µM, the GI50 (KM12 colon) was 15.8 µM and the TGI (KM12 colon) was 34.2 µM. It also gave a GI50 (OVCAR-5 ovarian) of 20.7 µM, a TGI (OVCAR-5 ovarian) of 48.7 µM and a GI50 (NCI/ADR-RES ovarian) of 8.24 µM. It also gave a TGI (NCI/ADR-RES ovarian) of 21 µM, a GI50 (HS 578T breast) of 15 µM and a TGI (HS 578T breast) of 29 µM. The GI50 (M14 melanoma) was 14.3 µM, the TGI (M14 melanoma) was 28.7 µM and the GI50 (BT-549 breast) was 15.8 µM. It also gave a TGI (BT-549 breast) of 29.6 µM, a GI50 (HCT-15 colon) of 11.5 µM and a TGI (HCT-15 colon) of 24.8 µM. The GI50 (OVCAR-4 ovarian) was 7.56 µM, the TGI (OVCAR-4 ovarian) was 19.5 µM and the GI50 (LOX IMVI melanoma) was 13.7 µM. For the same compound, the TGI (LOX IMVI melanoma) was 26.9 µM, the GI50 (COLO 205 colon) was 15.4 µM and the TGI (COLO 205 colon) was 48.5 µM. It also gave a GI50 (MALME-3M melanoma) of 13.5 µM, a TGI (MALME-3M melanoma) of 26.5 µM and a GI50 (SF-539 CNS) of 9.75 µM. It also gave a TGI (SF-539 CNS) of 21.8 µM, a GI50 (SF-268 CNS) of 15.5 µM and a TGI (SF-268 CNS) of 29.7 µM. For the same compound, the GI50 (RPMI-8226 leukemia) was 13.3 µM, the TGI (RPMI-8226 leukemia) was 26.2 µM and the GI50 (NCI-H23 lung) was 14 µM. For the same compound, the TGI (NCI-H23 lung) was 27.3 µM, the GI50 (MDA-MB-435 melanoma) was 13.7 µM and the TGI (MDA-MB-435 melanoma) was 29.1 µM. It also gave a GI50 (A498 renal) of 9.22 µM, a TGI (A498 renal) of 21.5 µM and a GI50 (ACHN renal) of 14.9 µM. For the same compound, the TGI (ACHN renal) was 30.5 µM, the GI50 (RXF 393 renal) was 14.2 µM and the TGI (RXF 393 renal) was 27.3 µM. For the same compound, the GI50 (NCI-H460 NSCLC) was 6.97 µM, the TGI (NCI-H460 NSCLC) was 19.8 µM and the GI50 (UACC-257 melanoma) was 17.8 µM. The TGI (UACC-257 melanoma) was 33 µM, the GI50 (HT29 colon) was 13.2 µM and the TGI (HT29 colon) was 27.1 µM. The GI50 (SNB-19 CNS) was 12.3 µM, the TGI (SNB-19 CNS) was 24.8 µM and the GI50 (SK-MEL-5 melanoma) was 3.44 µM. The TGI (SK-MEL-5 melanoma) was 14.3 µM, the GI50 (PC-3 prostate) was 11.5 µM and the TGI (PC-3 prostate) was 23.8 µM. It also gave a GI50 (U251 glioblastoma) of 12.1 µM, a TGI (U251 glioblastoma) of 24.6 µM and a GI50 (HOP-92 NSCLC) of 17.3 µM. The TGI (HOP-92 NSCLC) was 31.3 µM, the GI50 (IGROV1 ovarian) was 12.5 µM and the TGI (IGROV1 ovarian) was 29.6 µM. For the same compound, the GI50 (NCI-H522 lung) was 7.53 µM, the TGI (NCI-H522 lung) was 21.5 µM and the GI50 (CAKI-1 renal) was 10.9 µM. The TGI (CAKI-1 renal) was 23.2 µM, the GI50 (DU-145 prostate) was 14.4 µM and the TGI (DU-145 prostate) was 27.9 µM. The GI50 (OVCAR-3 ovarian) was 13.2 µM, the TGI (OVCAR-3 ovarian) was 26.7 µM and the GI50 (A549 NSCLC) was 12.5 µM. It also gave a TGI (A549 NSCLC) of 26.3 µM, a GI50 (UACC-62 melanoma) of 12.5 µM and a TGI (UACC-62 melanoma) of 25.3 µM. The GI50 (SR leukemia) was 1.83 µM, the TGI (SR leukemia) was 4.8 µM and the GI50 (TK-10 renal) was 10.7 µM. For the same compound, the TGI (TK-10 renal) was 22.7 µM, the GI50 (T-47D breast) was 12.3 µM and the TGI (T-47D breast) was 32 µM.
